# According to patent US20230011800A1, “[…] CHIP FOR […] AND TOXICITY ON NERVE, AND USE THEREOF” (CHA UNIVERSITY INDUSTRY-ACADEMIC COOPERATION FOUNDATION, priority 2019, published 2023):
# “Also recorded” adds a separate entry of the source.
# Tests used:
# Type in all cases: cell-based
# [1] = tested on: neurons differentiated from human stem cells (hPSCs) (Neurosight-S); assay: MeHg neurotoxicity on neurons cultured alone in the biomimetic nerve chip, Calcein-AM live cell imaging
# Procedure: Neurons differentiated from human stem cells (hPSCs) were secured through neurons (Neurosight-S) by NEXEL. A stock was thawed and injected immediately into the chip. The neurons were prepared at an appropriate concentration for injection of 15×10^4 cells/6 μL, loaded into the neuron inlet included in the nerve chip of the present invention, and injected into the neuron chamber passing through the neuron channel. The bottom of the neuron chamber was coated with Matrigel, which was three times more concentrated than usual, for stable attachment in the chip, and the neurons were cultured in Neurosight-S medium supplemented with Supplement (100×) for 3 days during which neurites can be formed.
# (§1) The injection of cells was conversely conducted. Human stem cell-derived neurons (Neurosight-S) were preferentially injected, wherein the neurons were prepared at an appropriate concentration for injection of 15×10^4 cells/6 μL, load into the neuron inlet, and injected into the neuron chamber. Human stem cell-derived astrocytes were prepared at an appropriate concentration for injection of 15×10^4 cells/6 μL, and nozzles of syringes each carrying 30 μL were connected to the astrocyte inlets, and the astrocytes were injected into the two astrocyte chambers by using a syringe pump.
# (§2) It was assessed whether neurotoxicity can be evaluated by a noticeable biomimetic nerve chip of the present invention in which an in vivo environment similar to physiological characteristics of the nervous system was constructed. First, methylmercury chloride (MeHg), a representative environmental toxic substance known to pass through the brain barrier regardless of a structure of the brain barrier and to have neurotoxicity, was selected as a toxic substance for treatment. The neurotoxicity evaluation was conducted by treating a chip having only neurons cultured and a chip having neurons and astrocytes co-cultured, with MeHg at various concentrations (0 μM, 1 μM, 5 μM, 10 μM) for 3 hours and then examining the cell response changes according to the MeHg time and concentration through real-time live cell imaging and immunocytochemistry, and then the functionality of the biomimetic nerve chip as a drug toxicity evaluation platform was assessed (FIGS. 8 to 10).
# Most of the neurons in the control group formed neurite networks while having intact cell bodies and neurites.
# The MeHg treatment concentrations were set to 1 μM, 5 μM, and 10 μM, and similarly, the viability of neurons was examined in real time through Calcein-AM.
# [2] = tested on: neurons co-cultured with astrocytes (human stem cell-derived); assay: MeHg neurotoxicity on neurons co-cultured with astrocytes in the nerve chip (astrocyte neuroprotection), Calcein-AM and MAP2
# Procedure: as §1, §2
# Finally, it was examined whether there was a neuroprotective function from the neurotoxicity of MeHg depending on the presence or absence of astrocytes inside the biomimetic nerve chip. MeHg treatment was conducted under two conditions in which […] were cultured alone and neurons and astrocytes were co-cultured, and the cell viability was evaluated in real time according to the time and concentration changes by using Calcein-AM (FIGS. 10A to 10C). […]
# [3] = tested on: astrocytes differentiated from human stem cells (hPSCs); assay: MeHg toxicity on astrocytes cultured in the nerve chip, Calcein-AM live cell imaging
# From the text: Astrocytes, differentiated from human stem cells (hPSCs), were secured by direct differentiation. Human stem cells (hPSCs) were maintained through culture and passage by using TeSr-E8 medium in a Matrigel-coated culture dish, and for differentiation into neurons, neural progenitor cells (NPCs) were first prepared. The stem cell colonies were detached using […], and then embryoid bodies (EBs) were formed using DMEM/F12 medium containing 20% knock out serum replacement, 1% nonessential amino acids, 55 μM β-mercaptoethanol, 10 μM SB431542, and 5 μM DMH1, and then again attached to a Matrigel-coated culture dish to form neural rosettes in DMEM/F12 medium containing 1% N2 supplement, […] insulin, and 20 ng/mL basic fibroblast growth factor. Only the center of the rosettes was separated using a thinly drawn Pasteur pipette, and then cultured in DMEM/F12 medium containing 1% N2 supplement, 20 ng/mL basic fibroblast growth factor, and 20 ng/mL epidermal growth factor to secure NPCs. The secured NPCs were again attached to a Matrigel-coated culture dish at a density of 2.8×10^3 cells/cm, and cultured in DMEM/F12 medium containing 1% N2 supplement, 2% vitamin A-removed B27 supplement, 10 ng/mL bone morphogenetic protein-4, 10 ng/mL ciliary neurotrophic factor, and 10 ng/mL leukemia inhibitory factor to thereby obtain finally differentiated astrocytes. […]
# as §2, with “First, methylmercury chloride (MeHg), a representative environmental toxic substance known to pass through the brain barrier regardless of a structure of the brain barrier and to have neurotoxicity, was selected as a toxic substance for treatment.” left out
# [4] = tested on: neurons differentiated from human stem cells (hPSCs) (Neurosight-S); assay: MeHg neurotoxicity on neurons cultured alone in the nerve chip, immunostaining with Tuj1 and MAP2; details: 1 μM, 5 μM and 10 μM MeHg, 3 hours
# Procedure: as §2
# The cell types can be distinguished by morphological characteristics of cells, but Calcein-AM targets all living cells regardless of the type of cells and thus cannot clearly identify the types of cells. The present inventors re-examined whether the neurons were damaged at the same extent by MeHg, through immunostaining using Tuj1 and MAP2 antibodies targeting only neurons (FIG. 8C).
# [5] = tested on: astrocytes differentiated from human stem cells (hPSCs); assay: MeHg toxicity on astrocytes in the nerve chip, immunostaining with GFAP and S100B; details: 3 hours
# Procedure: as §2
# On the basis of the assertion that this S100B increase is associated with CNS damage, immunostaining was performed using GFAP and S100B, which were used as markers for brain damage due to metal-induced neurotoxicity, in order to identify astrocytes and examine the response of astrocytes in the MeHg detection (FIG. 9C).
# [6] = in the presence of astrocytes, MeHg 1, 5, 10 μM, 3 hours
# [7] = as the concentration of MeHg increased (1, 5, 10 μM)
structure (smiles),measurement,setting,value
"[CH3][Hg][Cl] [MeHg, methylmercury chloride]","viability and morphology of neurons (neurites), Calcein-AM","[1]; 1 μM MeHg, after 3 hours",some neurites endured neurotoxicity of MeHg without damage to maintain the state thereof
same,"viability and morphology of neurons (neurites), Calcein-AM","[1]; 5 μM MeHg, after 3 hours","the neurites almost completely disappeared, leaving only fragmented fragments and only a form of cell bodies; also recorded: neurites disappeared and only the cell bodies remained"
same,"viability and morphology of neurons (neurites), Calcein-AM","[1]; 5 μM MeHg, until 2 hours after treatment",the neurites maintained the state thereof with deterioration little by little without any significant change
same,Calcein-AM signal of neurons over time,"[1]; 10 μM MeHg, 1-hour intervals for 3 hours",most of the Calcein-AM signals started to rapidly decrease 2 hours after MeHg treatment
same,"viability and morphology of neurons (neurites, cell bodies), Calcein-AM","[1]; 10 μM MeHg, after 3 hours",even the fluorescence signal of the remaining cell bodies was greatly reduced
same,Calcein-AM signal of neurons according to concentration,[2]; [6],maintained without any decrease
same,MAP2 signal of neurons according to concentration,[2]; [6],maintained without any decrease
same,"viability and morphological changes of neurons over time, Calcein-AM","[2]; neurons co-cultured with astrocytes, 10 μM MeHg, until 3 hours after treatment","no significant changes were observed, except for a few strands of neurites that partially disappeared"
same,"degree of morphological change of astrocytes according to concentration, Calcein-AM","[3]; MeHg 1, 5, 10 μM, 3 hours",no significant difference in the degree of morphological change due to cell aggregation regardless of the concentration
same,"cell viability of astrocytes, Calcein-AM","[3]; MeHg 1, 5, 10 μM, up to 3 hours",no decrease in cell viability was observed
same,"morphological changes of astrocytes over time, Calcein-AM","[3]; MeHg, 1-hour intervals for 3 hours",morphological changes of astrocytes due to cell aggregation were observed over time
same,"damage to neurons, immunostaining Tuj1 and MAP2",[4],the damage to cells increased as the concentration increased
same,GFAP expression signal in astrocytes,[5]; [7],the GFAP signal decreased
same,S100B expression signal in astrocytes,[5]; [7],the S100B signal increased
same,"viability of astrocytes, immunostaining","[5]; astrocytes, MeHg 1, 5, 10 μM",the viability of astrocytes was not changed
